Results taken from patent publication US20260347333A1, “NOVEL COMPOUND AND USE THEREOF” (PROTIER BIOTECH INC., priority 2023, published 2026).

Biological target: T1, Cereblon (CRBN) protein (Homo sapiens, UniProt Q96SW2)
T1 construct: DNA label for qPCR detection (not a peptide tag); host or cells: HEK-293
Experiment: CRBN binding affinity, E3scan (% Ctrl)
Conditions: lower % Ctrl = stronger binding, DMSO 100% Ctrl
Excerpt: As used herein, the term “Cereblon (CRBN)” refers to a protein encoded by a human CRBN gene located at a cytogenetic location of 3p26.2 and a molecular location between base pairs 3,148,489 and 3,179,716 on chromosome 3 (UCSC Genome Browser on Human, December 2013 (GRCh38/hg38) assembly). CRBN is a substrate recognition component of a DCX (DDB1-CUL4-X-box) E3 protein ligase complex mediating ubiquitination and subsequent proteasomal degradation of a target protein. The DCX (DDB1-CUL4-X-box) E3 protein ligase complex may comprise at least CRBN, CUL4A, DDB1, and RBX1. The CRBN protein has two isoforms generated by alternative splicing: isoform 1 has 442 amino acids and a molecular weight of 50,546 Da; and isoform 2 has 441 amino acids and a molecular weight of 50,475 Da.
To confirm the binding affinity of the compounds synthesized in the Preparation Examples for a Cereblon (CRBN) protein, the following experiment was performed using E3scan™ from Eurofins.
Specifically, CRBN was produced using a HEK-293 cell line and labeled with DNA for qPCR detection. Streptavidin-coated magnetic beads were treated with a biotinylated small-molecule ligand at room temperature for 30 minutes to generate an affinity resin for E3scan analysis. The liganded beads were blocked with excess biotin and washed with a blocking buffer (SeaBlock (Pierce), 1% BSA, 0.05% Tween 20, 1 mM DTT) to remove unbound ligands and prevent non-specific binding. […] The test compound was prepared as a 100× stock in 100% DMSO and diluted directly into the assay solution. All reactions were performed in a polypropylene 384-well plate with a final reaction volume of 0.02 mL. […] Then, the beads were resuspended in an elution buffer (1×PBS, 0.05% Tween 20, 0.5 μM non-biotinylated affinity ligand) and incubated with shaking at room temperature for 30 minutes. The CRBN concentration in the eluate was measured by qPCR. […] A lower ‘% Ctrl’ indicates a stronger binding affinity.

T1 sequence (Q96SW2 whole entry): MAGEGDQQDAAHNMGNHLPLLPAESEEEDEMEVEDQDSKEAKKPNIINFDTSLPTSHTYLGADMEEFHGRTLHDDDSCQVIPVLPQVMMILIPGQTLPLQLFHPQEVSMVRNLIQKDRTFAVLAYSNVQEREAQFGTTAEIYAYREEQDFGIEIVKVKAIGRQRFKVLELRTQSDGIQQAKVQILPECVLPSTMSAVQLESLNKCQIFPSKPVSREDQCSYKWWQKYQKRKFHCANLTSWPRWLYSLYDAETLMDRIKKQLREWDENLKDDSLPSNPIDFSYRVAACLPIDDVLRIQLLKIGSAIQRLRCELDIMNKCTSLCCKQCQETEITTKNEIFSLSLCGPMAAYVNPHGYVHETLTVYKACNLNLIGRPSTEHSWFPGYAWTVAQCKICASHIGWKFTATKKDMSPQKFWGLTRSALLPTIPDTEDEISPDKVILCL

Compound	remaining activity at 5 µM [%]
O=C1CCC(N2Cc3cc(C(=O)c4coc5ccccc45)ccc3C2=O)C(=O)N1 (stereo not shown) [Compound 37, 3-(5-(benzofuran-3-carbonyl)-1-oxoisoindolin-2-yl)piperidine-2,6-dione]	1 to 10
O=C1CCC(N2Cc3cc(C(=O)c4ccccc4)ccc3C2=O)C(=O)N1 (stereo not shown) [Compound 1, 3-(5-benzoyl-1-oxoisoindolin-2-yl)piperidine-2,6-dione]	1 to 10
O=C1CCC(N2Cc3cc(C(=O)c4cccc(-c5ccccc5)c4)ccc3C2=O)C(=O)N1 (stereo not shown) [Compound 26, 3-(5-([1,1′-biphenyl]-3-carbonyl)-1-oxoisoindolin-2-yl)piperidine-2,6-dione]	0 to 0.1
O=C1CCC(N2Cc3cc(C(=O)N4CCCC4)ccc3C2=O)C(=O)N1 (stereo not shown) [Compound 7, 3-(1-oxo-5-(pyrrolidine-1-carbonyl)isoindolin-2-yl)piperidine-2,6-dione]	0 to 0.1
O=C1CCC(N2C(=O)c3ccc(C(=O)c4cc5ccccc5[nH]4)cc3C2=O)C(=O)N1 (stereo not shown) [Compound 10, 2-(2,6-dioxopiperidin-3-yl)-5-(1H-indole-2-carbonyl)isoindoline-1,3-dione]	1 to 10
O=C1CCC(N2Cc3nc(C(=O)c4ccccc4)ccc3C2=O)C(=O)N1 (stereo not shown) [Compound 5, 3-(2-benzoyl-5-oxo-5,7-dihydro-6H-pyrrolo[3,4-b]pyridin-6-yl)piperidine-2,6-dione]	1 to 10
CNc1ccc2cc(C(=O)c3ccc4c(c3)CN(C3CCC(=O)NC3=O)C4=O)[nH]c2c1 (stereo not shown) [Compound 22, 3-(5-(6-(methylamino)-1H-indole-2-carbonyl)-1-oxoisoindolin-2-yl)piperidine-2,6-dione]	0 to 0.1
O=C1CCC(N2Cc3cc(C(=O)c4cn(-c5ccccc5)c5ccccc45)ccc3C2=O)C(=O)N1 (stereo not shown) [Compound 35, 3-(1-oxo-5-(1-phenyl-1H-indole-3-carbonyl)isoindolin-2-yl)piperidine-2,6-dione]	0 to 0.1
O=C1CCC(N2Cc3cc(C(=O)c4cc5ccccc5[nH]4)ccc3C2=O)C(=O)N1 (stereo not shown) [Compound 3, 3-(5-(1H-indole-2-carbonyl)-1-oxoisoindolin-2-yl)piperidine-2,6-dione]	0 to 0.1
O=C1CCC(N2Cc3cc(C(=O)c4ccccn4)ccc3C2=O)C(=O)N1 (stereo not shown) [Compound 12, 3-(1-oxo-5-picolinoylisoindolin-2-yl)piperidine-2,6-dione]	0 to 0.1
O=C1CCC(N2Cc3cc(C(=O)c4cc(-c5ccccc5)cs4)ccc3C2=O)C(=O)N1 (stereo not shown) [Compound 30, 3-(1-oxo-5-(4-phenylthiophene-2-carbonyl)isoindolin-2-yl)piperidine-2,6-dione]	0 to 0.1
O=C1CCC(N2Cc3cc(C(=O)N4Cc5ccccc5C4)ccc3C2=O)C(=O)N1 (stereo not shown) [Compound 36]	0 to 0.1
O=C1CCC(N2Cc3cc(C(=O)c4cc(-c5ccccc5)c[nH]4)ccc3C2=O)C(=O)N1 (stereo not shown) [Compound 27, 3-(1-oxo-5-(4-phenyl-1H-pyrrole-2-carbonyl)isoindolin-2-yl)piperidine-2,6-dione]	0 to 0.1
O=C1CCC(N2Cc3cc(C(=O)N4Cc5cccc6cccc4c56)ccc3C2=O)C(=O)N1 (stereo not shown) [Compound 31, 3-(5-(1,2-dihydrobenzo[cd]indole-1-carbonyl)-1-oxoisoindolin-2-yl)piperidine-2,6-dione]	0 to 0.1
O=C1CCC(N2Cc3cc(C(=O)c4c[nH]c5ccc(-c6ccccc6)cc45)ccc3C2=O)C(=O)N1 (stereo not shown) [Compound 24, 3-(1-oxo-5-(5-phenyl-1H-indole-3-carbonyl)isoindolin-2-yl)piperidine-2,6-dione]	10 to 35
O=C1CCC(N2Cc3cc(C(=O)c4ccc(Nc5ccccc5)cc4)ccc3C2=O)C(=O)N1 (stereo not shown) [Compound 15, 3-(1-oxo-5-(4-(phenylamino)benzoyl)isoindolin-2-yl)piperidine-2,6-dione]	0 to 0.1
O=C1CCC(N2Cc3cc(C(=O)c4ccc(-c5ccccc5)[nH]4)ccc3C2=O)C(=O)N1 (stereo not shown) [Compound 28, 3-(1-oxo-5-(5-phenyl-1H-pyrrole-2-carbonyl)isoindolin-2-yl)piperidine-2,6-dione]	1 to 10
O=C1CCC(N2Cc3cc(C(=O)C4CCN(Cc5ccccc5)CC4)ccc3C2=O)C(=O)N1 (stereo not shown) [Compound 11, 3-(5-(1-benzylpiperidine-4-carbonyl)-1-oxoisoindolin-2-yl)piperidine-2,6-dione]	0 to 0.1
O=C1CCC(N2Cc3cc(C(=O)c4ccc5cn[nH]c5c4)ccc3C2=O)C(=O)N1 (stereo not shown) [Compound 21, 3-(5-(1H-indazole-6-carbonyl)-1-oxoisoindolin-2-yl)piperidine-2,6-dione]	0 to 0.1
O=C1CCC(N2Cc3cc(C(=O)c4cn(-c5ccccc5)c5ccc(-c6ccccc6)cc45)ccc3C2=O)C(=O)N1 (stereo not shown) [Compound 25, 3-(5-(1,5-diphenyl-1H-indole-3-carbonyl)-1-oxoisoindolin-2-yl)piperidine-2,6-dione]	10 to 35
O=C1CCC(N2Cc3cc(C(=O)c4c[nH]c5ccccc45)ccc3C2=O)C(=O)N1 (stereo not shown) [Compound 4, 3-(5-(1H-indole-3-carbonyl)-1-oxoisoindolin-2-yl)piperidine-2,6-dione]	0.1 to 1
O=C1CCC(N2Cc3cc(C(=O)n4ncc5ccccc54)ccc3C2=O)C(=O)N1 (stereo not shown) [Compound 6, 3-(5-(1H-indazole-1-carbonyl)-1-oxoisoindolin-2-yl)piperidine-2,6-dione]	0 to 0.1
O=C1CCC(N2Cc3cc(C(=O)c4cc5ccccc5o4)ccc3C2=O)C(=O)N1 (stereo not shown) [Compound 34, 3-(5-(benzofuran-2-carbonyl)-1-oxoisoindolin-2-yl)piperidine-2,6-dione]	0 to 0.1
O=C1CCC(N2Cc3cc(C(=O)c4cccc(Nc5ccccc5)c4)ccc3C2=O)C(=O)N1 (stereo not shown) [Compound 16, 3-(1-oxo-5-(3-(phenylamino)benzoyl)isoindolin-2-yl)piperidine-2,6-dione]	0 to 0.1
O=C1CCC(N2Cc3cc(C(=O)c4n[nH]c5ccccc45)ccc3C2=O)C(=O)N1 (stereo not shown) [Compound 17, 3-(5-(1H-indazole-3-carbonyl)-1-oxoisoindolin-2-yl)piperidine-2,6-dione]	0 to 0.1
